Measurements taken from ChEMBL document CHEMBL2331514, “Structure-based design and synthesis of novel pseudosaccharine derivatives as antiproliferative agents and kinase inhibitors” (Eur J Med Chem, 2013).

Assays:
Assay type in all cases: functional
[1] = test system: SF-268; test: Cytotoxicity against human SF268 cells assessed as growth inhibition at 10 uM after 48 hrs by SRB assay; settings: SF-268, 48 h, read-out: GI
[2] = test system: COLO 205; test: Cytotoxicity against human COLO205 cells assessed as growth inhibition at 10 uM after 48 hrs by SRB assay; settings: COLO 205, 48 h, read-out: GI
[3] = test system: SN12C; test: Cytotoxicity against human SN12C cells assessed as growth inhibition at 10 uM after 48 hrs by SRB assay; settings: read-out: GI
[4] = test system: HCT-15; test: Cytotoxicity against human HCT15 cells assessed as growth inhibition at 10 uM after 48 hrs by SRB assay; settings: HCT-15, 48 h, read-out: GI
[5] = test system: ACHN; test: Cytotoxicity against human ACHN cells assessed as growth inhibition at 10 uM after 48 hrs by SRB assay; settings: read-out: GI
[6] = test system: OVCAR-8; test: Cytotoxicity against human OVCAR8 cells assessed as growth inhibition at 10 uM after 48 hrs by SRB assay; settings: OVCAR-8, 48 h, read-out: GI
[7] = test system: NCI-H226; test: Cytotoxicity against human NCI-H226 cells assessed as growth inhibition at 10 uM after 48 hrs by SRB assay; settings: NCI-H226, 48 h, read-out: GI
[8] = test system: NCI-H522; test: Cytotoxicity against human NCI-H522 cells assessed as growth inhibition at 10 uM after 48 hrs by SRB assay; settings: NCI-H522, 48 h, read-out: GI
[9] = test system: 786-0; test: Cytotoxicity against human 786-0 cells assessed as growth inhibition at 10 uM after 48 hrs by SRB assay; settings: 786-0, 48 h, read-out: GI
[10] = test system: SK-MEL-2; test: Cytotoxicity against human SK-MEL-2 cells assessed as growth inhibition at 10 uM after 48 hrs by SRB assay; settings: SK-MEL-2, 48 h, read-out: GI
[11] = test system: SK-MEL-5; test: Cytotoxicity against human SK-MEL-5 cells assessed as growth inhibition at 10 uM after 48 hrs by SRB assay; settings: SK-MEL-5, 48 h, read-out: GI
[12] = test system: U-251; test: Cytotoxicity against human U251 cells assessed as growth inhibition at 10 uM after 48 hrs by SRB assay; settings: U-251, 48 h, read-out: GI
[13] = test system: MOLT-4; test: Cytotoxicity against human MOLT4 cells assessed as growth inhibition at 10 uM after 48 hrs by SRB assay; settings: MOLT-4, 48 h, read-out: GI
[14] = test system: SR; test: Cytotoxicity against human SR cells assessed as growth inhibition at 10 uM after 48 hrs by SRB assay; settings: read-out: GI
[15] = test system: SW-620; test: Cytotoxicity against human SW620 cells assessed as growth inhibition at 10 uM after 48 hrs by SRB assay; settings: SW-620, 48 h, read-out: GI
[16] = test system: UACC-257; test: Cytotoxicity against human UACC257 cells assessed as growth inhibition at 10 uM after 48 hrs by SRB assay; settings: UACC-257, 48 h, read-out: GI
[17] = test system: SK-MEL-28; test: Cytotoxicity against human SK-MEL-28 cells assessed as growth inhibition at 10 uM after 48 hrs by SRB assay; settings: SK-MEL-28, 48 h, read-out: GI
[18] = test system: SNB-19; test: Cytotoxicity against human SNB19 cells assessed as growth inhibition at 10 uM after 48 hrs by SRB assay; settings: SNB-19, 48 h, read-out: GI
[19] = test system: OVCAR-3; test: Cytotoxicity against human OVCAR3 cells assessed as growth inhibition at 10 uM after 48 hrs by SRB assay; settings: OVCAR-3, 48 h, read-out: GI
[20] = Cytotoxicity against human EKVX cells assessed as growth inhibition at 10 uM after 48 hrs by SRB assay; settings: read-out: GI
[21] = test system: UACC-62; test: Cytotoxicity against human UACC62 cells assessed as growth inhibition at 10 uM after 48 hrs by SRB assay; settings: UACC-62, 48 h, read-out: GI
[22] = test system: CCRF-CEM; test: Cytotoxicity against human CCRF-CEM cells assessed as growth inhibition at 10 uM after 48 hrs by SRB assay; settings: read-out: GI
[23] = test system: DU-145; test: Cytotoxicity against human DU145 cells assessed as growth inhibition at 10 uM after 48 hrs by SRB assay; settings: DU-145, 48 h, read-out: GI
[24] = test system: MDA-MB-435; test: Cytotoxicity against human MDA-MB-435 cells assessed as growth inhibition at 10 uM after 48 hrs by SRB assay; settings: MDA-MB-435, 48 h, read-out: GI
[25] = test system: A498; test: Cytotoxicity against human A498 cells assessed as growth inhibition at 10 uM after 48 hrs by SRB assay; settings: A498, 48 h, read-out: GI
[26] = test system: HOP-62; test: Cytotoxicity against human HOP62 cells assessed as growth inhibition at 10 uM after 48 hrs by SRB assay; settings: HOP-62, 48 h, read-out: GI
[27] = test system: M14; test: Cytotoxicity against human M14 cells assessed as growth inhibition at 10 uM after 48 hrs by SRB assay; settings: M14, 48 h, read-out: GI
[28] = test system: SNB-75; test: Cytotoxicity against human SNB75 cells assessed as growth inhibition at 10 uM after 48 hrs by SRB assay; settings: SNB-75, 48 h, read-out: GI
[29] = test system: HT-29; test: Cytotoxicity against human HT-29 cells assessed as growth inhibition at 10 uM after 48 hrs by SRB assay; settings: HT-29, 48 h, read-out: GI
[30] = test system: MDA-MB-468; test: Cytotoxicity against human MDA-MB-468 cells assessed as growth inhibition at 10 uM after 48 hrs by SRB assay; settings: MDA-MB-468, 48 h, read-out: GI
[31] = test system: HOP-92; test: Cytotoxicity against human HOP92 cells assessed as growth inhibition at 10 uM after 48 hrs by SRB assay; settings: HOP-92, 48 h, read-out: GI
[32] = test system: HCT-116; test: Cytotoxicity against human HCT116 cells assessed as growth inhibition at 10 uM after 48 hrs by SRB assay; settings: HCT-116, 48 h, read-out: GI
[33] = test system: SK-OV-3; test: Cytotoxicity against human SKOV3 cells assessed as growth inhibition at 10 uM after 48 hrs by SRB assay; settings: SK-OV-3, 48 h, read-out: GI
[34] = test system: NCI-H460; test: Cytotoxicity against human NCI-H460 cells assessed as growth inhibition at 10 uM after 48 hrs by SRB assay; settings: NCI-H460, 48 h, read-out: GI
[35] = test system: T47D; test: Cytotoxicity against human T47D cells assessed as growth inhibition at 10 uM after 48 hrs by SRB assay; settings: read-out: GI
[36] = test system: IGROV-1; test: Cytotoxicity against human IGROV1 cells assessed as growth inhibition at 10 uM after 48 hrs by SRB assay; settings: IGROV-1, 48 h, read-out: GI
[37] = Cytotoxicity against human NCI-ADR-RES cells assessed as growth inhibition at 10 uM after 48 hrs by SRB assay; settings: read-out: GI
[38] = test system: OVCAR-5; test: Cytotoxicity against human OVCAR5 cells assessed as growth inhibition at 10 uM after 48 hrs by SRB assay; settings: OVCAR-5, 48 h, read-out: GI

| Structure (SMILES) | inhibition of growth at 10 µM [1] | inhibition of growth at 10 µM [2] | inhibition of growth at 10 µM [3] | inhibition of growth at 10 µM [4] | inhibition of growth at 10 µM [5] | inhibition of growth at 10 µM [6] | inhibition of growth at 10 µM [7] | inhibition of growth at 10 µM [8] | inhibition of growth at 10 µM [9] | inhibition of growth at 10 µM [10] | inhibition of growth at 10 µM [11] | inhibition of growth at 10 µM [12] | inhibition of growth at 10 µM [13] | inhibition of growth at 10 µM [14] | inhibition of growth at 10 µM [15] | inhibition of growth at 10 µM [16] | inhibition of growth at 10 µM [17] | inhibition of growth at 10 µM [18] | inhibition of growth at 10 µM [19] | inhibition of growth at 10 µM [20] | also measured |
| --- | --- | --- | --- | --- | --- | --- | --- | --- | --- | --- | --- | --- | --- | --- | --- | --- | --- | --- | --- | --- | --- |
| O=C(Nc1ccc(Cl)cc1)Nc1ccc2c(c1)C(Nc1ccc(Cl)cc1Cl)=NS2(=O)=O | 40% | 77% | 67% | 76% | 85% | 65% | 63% | 77% | 73% | 50% | 51% | 73% | 73% | 60% | 69% | 38% | 42% | 64% | 98% | 71% | inhibition of growth at 10 µM [21]: 71%; inhibition of growth at 10 µM [22]: 82%; inhibition of growth at 10 µM [23]: 71%; inhibition of growth at 10 µM [24]: 65%; inhibition of growth at 10 µM [25]: 68%; inhibition of growth at 10 µM [26]: 33%; inhibition of growth at 10 µM [27]: 63%; inhibition of growth at 10 µM [28]: 30%; inhibition of growth at 10 µM [29]: 57%; inhibition of growth at 10 µM [30]: 74%; inhibition of growth at 10 µM [31]: 82%; inhibition of growth at 10 µM [32]: 91%; inhibition of growth at 10 µM [33]: 15%; inhibition of growth at 10 µM [34]: 87%; inhibition of growth at 10 µM [35]: 87%; inhibition of growth at 10 µM [36]: 54%; inhibition of growth at 10 µM [37]: 79%; inhibition of growth at 10 µM [38]: 40% |
| O=C(Nc1ccccc1)Nc1ccc(NC2=NS(=O)(=O)c3ccccc32)cc1 | -1% | -19% | 0% | -7% | -8% | -5% | 10% | -6% | 3% | -14% | 6% | 1% | 4% | 3% | -4% | -1% | -10% | -5% | -11% | 0% | inhibition of growth at 10 µM [21]: -7%; inhibition of growth at 10 µM [22]: 5%; inhibition of growth at 10 µM [23]: -1%; inhibition of growth at 10 µM [24]: 0%; inhibition of growth at 10 µM [25]: 16%; inhibition of growth at 10 µM [26]: -11%; inhibition of growth at 10 µM [27]: -3%; inhibition of growth at 10 µM [28]: 19%; inhibition of growth at 10 µM [29]: 1%; inhibition of growth at 10 µM [30]: -11%; inhibition of growth at 10 µM [31]: 1%; inhibition of growth at 10 µM [32]: -6%; inhibition of growth at 10 µM [33]: -7%; inhibition of growth at 10 µM [34]: -3%; inhibition of growth at 10 µM [35]: 10%; inhibition of growth at 10 µM [36]: -14%; inhibition of growth at 10 µM [37]: -2%; inhibition of growth at 10 µM [38]: -2% |
| O=C(Nc1ccc(NC2=NS(=O)(=O)c3ccccc32)cc1)Nc1cccc(Br)c1 | 23% | -11% | 21% | -6% | 3% | 17% | 20% | 14% | 27% | 1% | 45% | 39% | 37% | 27% | -2% | 9% | 5% | 19% | 22% | -4% | inhibition of growth at 10 µM [21]: 19%; inhibition of growth at 10 µM [22]: 39%; inhibition of growth at 10 µM [23]: 19%; inhibition of growth at 10 µM [24]: 11%; inhibition of growth at 10 µM [25]: 21%; inhibition of growth at 10 µM [26]: 24%; inhibition of growth at 10 µM [27]: 22%; inhibition of growth at 10 µM [28]: 15%; inhibition of growth at 10 µM [29]: 11%; inhibition of growth at 10 µM [30]: 60%; inhibition of growth at 10 µM [31]: 36%; inhibition of growth at 10 µM [32]: 22%; inhibition of growth at 10 µM [33]: 4%; inhibition of growth at 10 µM [34]: 1%; inhibition of growth at 10 µM [35]: 60%; inhibition of growth at 10 µM [36]: -10%; inhibition of growth at 10 µM [37]: 8%; inhibition of growth at 10 µM [38]: 13% |
